According to patent US12559487B2, “Crosslinked optically active secondary amine derivative” (Sumitomo Pharma Co., Ltd., priority 2019, dated 2026):
pIC50: −log10 of the molar value.

Key:
MV4; 11 cells = assay: Test 1: Test for evaluating the inhibition of cell proliferation; format: cell-based; details: cultured for 7 days, PrestoBlue cell viability
Description: MV4; 11 cells were obtained from American Type Culture Collection (ATCC). The cells were cultured at 37° C. in the presence of 5% CO2 in RPMI 1640 medium containing 10% fetal bovine serum and 1% penicillin/streptomycin.
The cells were plated to a 96-well plate in 2000 cells/well, each test compound was added thereto to adjust the final concentration of DMSO to 0.1% of DMSO, and the cells were cultured for 7 days. After the cultivation, the cell viability was calculated with PrestoBlue™ Cell Viability Reagent (Invitrogen, A13261).

[1] = biological target: hERG (human Ether-a-go-go Related Gene) (Homo sapiens (Human), UniProt Q12809)
Chain of hERG (human Ether-a-go-go Related Gene) (Q12809 whole entry): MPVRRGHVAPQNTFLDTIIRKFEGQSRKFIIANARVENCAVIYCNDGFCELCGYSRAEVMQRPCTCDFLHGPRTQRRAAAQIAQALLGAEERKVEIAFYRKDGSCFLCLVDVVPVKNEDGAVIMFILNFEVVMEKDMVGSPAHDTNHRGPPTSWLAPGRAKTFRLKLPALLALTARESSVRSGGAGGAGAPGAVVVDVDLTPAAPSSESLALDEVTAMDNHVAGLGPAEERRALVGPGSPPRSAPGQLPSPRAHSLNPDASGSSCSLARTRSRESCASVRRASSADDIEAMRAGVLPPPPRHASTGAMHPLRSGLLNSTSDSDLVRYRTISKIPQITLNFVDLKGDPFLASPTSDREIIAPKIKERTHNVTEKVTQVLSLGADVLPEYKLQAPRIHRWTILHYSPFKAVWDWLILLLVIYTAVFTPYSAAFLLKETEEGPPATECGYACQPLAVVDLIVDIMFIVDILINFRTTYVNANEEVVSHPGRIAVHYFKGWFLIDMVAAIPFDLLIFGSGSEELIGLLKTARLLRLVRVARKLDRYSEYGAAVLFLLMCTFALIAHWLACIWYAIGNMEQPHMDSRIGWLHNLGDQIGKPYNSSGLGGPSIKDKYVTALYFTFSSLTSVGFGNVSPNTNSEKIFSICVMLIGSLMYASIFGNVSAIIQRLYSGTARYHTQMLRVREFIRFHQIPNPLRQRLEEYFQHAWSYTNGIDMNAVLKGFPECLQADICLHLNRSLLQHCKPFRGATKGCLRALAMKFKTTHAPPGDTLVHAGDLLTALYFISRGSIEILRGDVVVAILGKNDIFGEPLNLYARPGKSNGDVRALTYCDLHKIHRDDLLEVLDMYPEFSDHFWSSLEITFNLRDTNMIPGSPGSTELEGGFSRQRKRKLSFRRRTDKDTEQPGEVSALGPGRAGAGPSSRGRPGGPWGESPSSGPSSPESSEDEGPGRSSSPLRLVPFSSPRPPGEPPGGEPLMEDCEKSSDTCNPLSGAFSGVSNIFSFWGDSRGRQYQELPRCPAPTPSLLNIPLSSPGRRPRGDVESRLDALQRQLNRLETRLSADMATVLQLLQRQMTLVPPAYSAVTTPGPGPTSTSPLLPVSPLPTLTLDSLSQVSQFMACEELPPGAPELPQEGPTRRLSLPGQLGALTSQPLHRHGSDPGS

| Substance | pIC50 (MV4; 11 cells) | hERG/MV4; 11 [1] |
| --- | --- | --- |
| 2-(3-{1-[(3S)-2-azabicyclo[2.2.2]octane-3-carbonyl]azepan-4-yl}-1H-pyrrolo[2,3-c]pyridin-1-yl)-5-fluoro-N-methyl-N-(propan-2-yl)benzamide [Example 11] | > 7.52 | >1287 |
| 5-fluoro-N-methyl-2-(3-{1-[(1S,3S,4R)-5-methylidene-2-azabicyclo[2.2.1]heptane-3-carbonyl]azepan-4-yl}-1H-pyrrolo[2,3-c]pyridin-1-yl)-N-(propan-2-yl)benzamide [Example 13] | 6.89 | 198 |
